In ChEMBL document CHEMBL1201862, “PubChem BioAssay data set” (2004):
Several values for one entry are separate records, joined by “and”; a condition that tells them apart may be missing. Identical values can stand only once. Activity calls are given as the source filed them.

Experiments:
[1] = target: Nucleotide-binding oligomerization domain-containing protein 2 (Homo sapiens, UniProt Q9HC29); assay: NOD2 signaling inhibitors, cell-based, luminescence, uHTS, HEK293 (AID 1566); format: functional
Tumor necrosis factor = Tumor necrosis factor (Homo sapiens, UniProt P01375); assay: TNFa-triggered NF-kB activation inhibitors, SAR follow-up, cell-based, revised (AID 2337); format: functional
HEK293 [2] = assay: NOD1 signaling inhibitors, primary screen, cell-based, luminescence, uHTS (AID 1578); format: functional; settings: Homo sapiens
HEK293 [3] = assay: cells; format: functional, cell-based; settings: Homo sapiens
HEK293 [4] = assay: cells; settings: Homo sapiens
HEK293 [5] = assay: NOD2 signaling inhibitors in MDP-stimulated cells, cell-based, uHTS, luminescence (AID 2001); format: functional; settings: Homo sapiens
HEK293 [6] = assay: cells; format: functional, cell-based; settings: Homo sapiens; remark: listed apart in the source
HEK293 [7] = assay: cells; format: functional, cell-based; settings: Homo sapiens; remark: listed apart in the source
[8] = target: T1, Nucleotide-binding oligomerization domain-containing protein 1 (Homo sapiens, UniProt Q9Y239); assay: NOD1 signaling inhibitors, SAR follow-up, revised (AID 2333); format: functional
T1 sequence (Q9Y239 whole entry): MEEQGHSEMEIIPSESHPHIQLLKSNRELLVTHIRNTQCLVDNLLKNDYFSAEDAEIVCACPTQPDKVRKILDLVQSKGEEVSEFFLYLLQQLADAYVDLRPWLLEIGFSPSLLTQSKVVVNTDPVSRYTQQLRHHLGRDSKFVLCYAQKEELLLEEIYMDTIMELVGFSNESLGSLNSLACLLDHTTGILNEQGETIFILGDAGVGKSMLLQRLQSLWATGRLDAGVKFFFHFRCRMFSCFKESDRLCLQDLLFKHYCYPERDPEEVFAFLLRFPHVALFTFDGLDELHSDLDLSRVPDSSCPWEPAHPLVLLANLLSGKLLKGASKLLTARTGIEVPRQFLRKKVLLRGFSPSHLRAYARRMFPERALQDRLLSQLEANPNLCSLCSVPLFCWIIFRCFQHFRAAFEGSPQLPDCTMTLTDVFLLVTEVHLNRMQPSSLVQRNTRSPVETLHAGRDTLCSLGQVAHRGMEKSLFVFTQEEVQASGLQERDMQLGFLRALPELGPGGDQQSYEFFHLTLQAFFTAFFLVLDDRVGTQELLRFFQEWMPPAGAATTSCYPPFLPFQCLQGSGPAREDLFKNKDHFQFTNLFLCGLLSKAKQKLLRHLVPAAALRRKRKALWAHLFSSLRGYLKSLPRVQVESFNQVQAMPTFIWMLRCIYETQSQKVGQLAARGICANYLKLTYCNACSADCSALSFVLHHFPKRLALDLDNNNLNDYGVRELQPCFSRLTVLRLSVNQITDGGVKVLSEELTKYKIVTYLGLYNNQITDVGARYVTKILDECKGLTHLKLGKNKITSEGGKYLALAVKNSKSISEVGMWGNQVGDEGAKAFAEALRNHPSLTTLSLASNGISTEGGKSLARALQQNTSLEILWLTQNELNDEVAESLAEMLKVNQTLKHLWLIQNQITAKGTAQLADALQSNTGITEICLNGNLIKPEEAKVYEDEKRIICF

[9] = target: T2, Carboxy-terminal domain RNA polymerase II polypeptide A small phosphatase 1 (Homo sapiens, UniProt Q9GZU7); assay: inhibitors of CTDSP1, concentration-response testing, biochemical assay, absorbance-based, actives from ultra-high-throughput screening (AID 540297); format: functional
T2 sequence (Q9GZU7 whole entry): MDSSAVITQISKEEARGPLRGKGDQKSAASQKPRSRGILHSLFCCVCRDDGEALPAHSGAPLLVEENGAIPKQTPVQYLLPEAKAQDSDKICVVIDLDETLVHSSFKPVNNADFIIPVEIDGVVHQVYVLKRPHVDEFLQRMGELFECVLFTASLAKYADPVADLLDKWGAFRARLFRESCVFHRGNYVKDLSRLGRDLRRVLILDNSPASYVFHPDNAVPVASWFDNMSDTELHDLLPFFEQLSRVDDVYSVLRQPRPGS

[10] = target: Induced myeloid leukemia cell differentiation protein Mcl-1 (Homo sapiens, UniProt Q07820); format: functional
[11] = target: Glyceraldehyde-3-phosphate dehydrogenase (Homo sapiens, UniProt P04406)
[12] = target: T3, Alkaline phosphatase, tissue-nonspecific isozyme (Homo sapiens, UniProt P05186); assay: human TNAP enzyme inhibitors, SAR follow-up, biochemical, luminescent, dose response (AID 1056)
T3 sequence (P05186 whole entry): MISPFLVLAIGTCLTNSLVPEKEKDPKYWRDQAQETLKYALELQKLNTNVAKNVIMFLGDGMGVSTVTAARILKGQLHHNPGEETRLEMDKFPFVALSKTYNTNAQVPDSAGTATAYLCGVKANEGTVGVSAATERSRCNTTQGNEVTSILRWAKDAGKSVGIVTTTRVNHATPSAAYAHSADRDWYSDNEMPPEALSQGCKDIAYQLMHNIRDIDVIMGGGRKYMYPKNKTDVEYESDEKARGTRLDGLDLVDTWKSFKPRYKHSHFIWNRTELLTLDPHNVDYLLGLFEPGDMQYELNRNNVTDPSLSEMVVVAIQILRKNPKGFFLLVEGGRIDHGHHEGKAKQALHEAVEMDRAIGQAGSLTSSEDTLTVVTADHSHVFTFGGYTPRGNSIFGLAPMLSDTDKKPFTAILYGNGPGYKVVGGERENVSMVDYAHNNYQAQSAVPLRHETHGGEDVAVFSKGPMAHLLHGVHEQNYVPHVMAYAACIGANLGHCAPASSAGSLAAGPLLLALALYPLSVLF

[13] = THP-1 cell cytotoxicity, dose response, cytotoxicity control for non-replicating M. tuberculosis project (AID 489025); format: functional
cells = format: functional
Streptococcus = assay: Group A Streptococcus viability loss, dose response, counter-screen for streptokinase expression inhibitor project, luminescence, BacTiterGlo (AID 1915); format: functional, organism-based;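 note: potency for reduction of bacterial viability or growth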
Nonstructural protein 1 = Nonstructural protein 1 (Influenza A virus, UniProt Q194T2); format: functional, Influenza A virus (A/California/07/2009(H1N1))
[14] = test system: Streptococcus sp. 'group A'; assay: growth inhibition of control SK(-) GAS strain, dose response, counter-screen for streptokinase expression inhibitor project, luminescence, kanamycin, BacTiterGlo, confirmation (AID 1900); format: functional, organism-based
Streptokinase A = target: T4, Streptokinase A (Streptococcus pyogenes serotype M1, UniProt P10520); assay: S. pyogenes streptokinase expression inhibitors, potency, dose response, plasminogen activation absorbance, OD405 (AID 1914); format: functional, Streptococcus pyogenes M1 GAS;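 note: secreted streptokinase activity via plasminogen activation per viability signal from cell pellet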
T4 sequence (P10520 whole entry): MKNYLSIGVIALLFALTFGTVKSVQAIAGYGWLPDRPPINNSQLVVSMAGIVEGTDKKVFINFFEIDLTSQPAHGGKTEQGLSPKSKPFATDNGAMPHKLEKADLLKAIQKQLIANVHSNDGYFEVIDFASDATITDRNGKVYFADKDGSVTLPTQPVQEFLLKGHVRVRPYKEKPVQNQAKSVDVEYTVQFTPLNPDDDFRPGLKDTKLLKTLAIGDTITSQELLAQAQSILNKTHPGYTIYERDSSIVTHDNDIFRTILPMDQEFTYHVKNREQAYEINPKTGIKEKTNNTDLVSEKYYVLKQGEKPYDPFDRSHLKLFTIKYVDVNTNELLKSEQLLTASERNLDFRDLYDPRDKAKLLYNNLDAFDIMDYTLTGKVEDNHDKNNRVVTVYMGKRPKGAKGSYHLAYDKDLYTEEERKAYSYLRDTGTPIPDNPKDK

[15] = target: T5, Rac GTPase-activating protein 1 (Homo sapiens, UniProt Q9H0H5); assay: MgcRacGAP GTPase-activating activity inhibitors, confirmation, biochemical, ADP Hunter fluorescence, primary and confirmatory (AID 624330); format: functional
T5 sequence (Q9H0H5 whole entry): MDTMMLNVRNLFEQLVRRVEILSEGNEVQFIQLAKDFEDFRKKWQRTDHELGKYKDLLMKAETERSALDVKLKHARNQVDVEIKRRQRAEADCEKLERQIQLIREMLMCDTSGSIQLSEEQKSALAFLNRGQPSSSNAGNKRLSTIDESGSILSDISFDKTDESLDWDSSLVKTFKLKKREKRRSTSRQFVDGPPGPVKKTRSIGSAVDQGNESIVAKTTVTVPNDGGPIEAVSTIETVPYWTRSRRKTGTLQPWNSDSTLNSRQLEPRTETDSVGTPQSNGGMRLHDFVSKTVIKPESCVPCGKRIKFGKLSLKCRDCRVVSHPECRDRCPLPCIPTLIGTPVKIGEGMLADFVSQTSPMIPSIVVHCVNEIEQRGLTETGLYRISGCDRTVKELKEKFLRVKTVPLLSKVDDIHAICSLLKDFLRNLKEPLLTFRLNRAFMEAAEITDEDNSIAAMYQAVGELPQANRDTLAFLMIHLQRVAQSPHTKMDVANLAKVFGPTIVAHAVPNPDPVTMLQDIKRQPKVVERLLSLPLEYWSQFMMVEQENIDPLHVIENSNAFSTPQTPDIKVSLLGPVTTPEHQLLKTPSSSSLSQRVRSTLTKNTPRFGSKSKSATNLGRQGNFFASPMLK

[16] = target: T6, Polyadenylate-binding protein 1 (Homo sapiens, UniProt P11940); assay: PABP1 MLLE–PAM2 binding inhibitor potency, dose response, biochemical, fluorescence polarization, FITC-PAM2 peptide (AID 602259); format: functional; settings: read-out: IC50_Mean
[17] = target: T6, Polyadenylate-binding protein 1; assay: PABP1 MLLE–PAM2 interaction inhibitors, dose response, miRNA deadenylation inhibitor project, biochemical, fluorescence polarization, Cy5-PAM2 peptide, secondary (AID 602260); format: functional; settings: read-out: IC50_Mean
[18] = target: FAD-linked sulfhydryl oxidase ALR (Homo sapiens, UniProt P55789); assay: inhibitors of human ALR sulfhydryl oxidase, dose response, biochemical, H2O2 detection, luminescence, cherry-pick (AID 493248)
[19] = target: T7, Microphthalmia-associated transcription factor (Homo sapiens, UniProt O75030); assay: TRPM1 promoter luciferase signal decrease, dose response, MITF inhibitor project, cell-based, SK-MEL-5, cherry-picked, set 3 (AID 493073); format: functional
T7 sequence (O75030 whole entry): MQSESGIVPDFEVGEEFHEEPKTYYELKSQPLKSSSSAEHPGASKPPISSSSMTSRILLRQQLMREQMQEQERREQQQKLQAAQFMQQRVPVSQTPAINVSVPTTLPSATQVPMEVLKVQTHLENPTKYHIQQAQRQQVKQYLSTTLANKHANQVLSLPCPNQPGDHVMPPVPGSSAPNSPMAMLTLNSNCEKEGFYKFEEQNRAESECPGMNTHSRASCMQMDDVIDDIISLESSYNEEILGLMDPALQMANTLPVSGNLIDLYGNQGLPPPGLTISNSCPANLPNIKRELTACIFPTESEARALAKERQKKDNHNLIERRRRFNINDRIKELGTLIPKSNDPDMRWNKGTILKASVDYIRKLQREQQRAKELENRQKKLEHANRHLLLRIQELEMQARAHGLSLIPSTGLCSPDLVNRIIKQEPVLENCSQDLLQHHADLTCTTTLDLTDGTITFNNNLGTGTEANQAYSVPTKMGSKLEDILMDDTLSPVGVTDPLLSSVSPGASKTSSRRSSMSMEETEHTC

Sequence of Tumor necrosis factor (P01375 whole entry): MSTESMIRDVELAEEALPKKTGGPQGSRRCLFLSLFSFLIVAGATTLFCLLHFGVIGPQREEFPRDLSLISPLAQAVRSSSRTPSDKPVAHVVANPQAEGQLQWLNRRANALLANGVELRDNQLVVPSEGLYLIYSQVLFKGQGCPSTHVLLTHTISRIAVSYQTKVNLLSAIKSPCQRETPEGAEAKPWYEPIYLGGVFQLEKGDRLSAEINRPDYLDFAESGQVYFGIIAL
Sequence of Glyceraldehyde-3-phosphate dehydrogenase (P04406 whole entry): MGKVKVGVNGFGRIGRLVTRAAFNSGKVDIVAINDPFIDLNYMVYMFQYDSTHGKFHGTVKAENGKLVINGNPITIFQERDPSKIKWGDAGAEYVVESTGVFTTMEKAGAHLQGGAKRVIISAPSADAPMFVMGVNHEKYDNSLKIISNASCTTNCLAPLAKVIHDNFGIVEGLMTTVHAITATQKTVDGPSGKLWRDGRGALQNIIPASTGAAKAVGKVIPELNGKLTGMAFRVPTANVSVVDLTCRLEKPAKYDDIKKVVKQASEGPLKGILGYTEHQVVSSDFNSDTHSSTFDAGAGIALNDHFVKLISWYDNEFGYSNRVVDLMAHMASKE
Sequence of Induced myeloid leukemia cell differentiation protein Mcl-1 (Q07820 whole entry): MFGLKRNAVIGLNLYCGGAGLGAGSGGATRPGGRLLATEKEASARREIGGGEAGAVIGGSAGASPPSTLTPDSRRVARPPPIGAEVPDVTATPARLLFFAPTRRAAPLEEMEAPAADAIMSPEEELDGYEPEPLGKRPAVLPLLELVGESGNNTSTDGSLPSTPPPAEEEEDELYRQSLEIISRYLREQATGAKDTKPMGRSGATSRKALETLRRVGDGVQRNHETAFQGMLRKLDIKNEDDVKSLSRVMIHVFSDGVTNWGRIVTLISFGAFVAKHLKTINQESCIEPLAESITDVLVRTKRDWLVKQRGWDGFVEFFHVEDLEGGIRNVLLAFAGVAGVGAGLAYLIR
Sequence of Nucleotide-binding oligomerization domain-containing protein 2 (Q9HC29 whole entry, the tested form may be a part): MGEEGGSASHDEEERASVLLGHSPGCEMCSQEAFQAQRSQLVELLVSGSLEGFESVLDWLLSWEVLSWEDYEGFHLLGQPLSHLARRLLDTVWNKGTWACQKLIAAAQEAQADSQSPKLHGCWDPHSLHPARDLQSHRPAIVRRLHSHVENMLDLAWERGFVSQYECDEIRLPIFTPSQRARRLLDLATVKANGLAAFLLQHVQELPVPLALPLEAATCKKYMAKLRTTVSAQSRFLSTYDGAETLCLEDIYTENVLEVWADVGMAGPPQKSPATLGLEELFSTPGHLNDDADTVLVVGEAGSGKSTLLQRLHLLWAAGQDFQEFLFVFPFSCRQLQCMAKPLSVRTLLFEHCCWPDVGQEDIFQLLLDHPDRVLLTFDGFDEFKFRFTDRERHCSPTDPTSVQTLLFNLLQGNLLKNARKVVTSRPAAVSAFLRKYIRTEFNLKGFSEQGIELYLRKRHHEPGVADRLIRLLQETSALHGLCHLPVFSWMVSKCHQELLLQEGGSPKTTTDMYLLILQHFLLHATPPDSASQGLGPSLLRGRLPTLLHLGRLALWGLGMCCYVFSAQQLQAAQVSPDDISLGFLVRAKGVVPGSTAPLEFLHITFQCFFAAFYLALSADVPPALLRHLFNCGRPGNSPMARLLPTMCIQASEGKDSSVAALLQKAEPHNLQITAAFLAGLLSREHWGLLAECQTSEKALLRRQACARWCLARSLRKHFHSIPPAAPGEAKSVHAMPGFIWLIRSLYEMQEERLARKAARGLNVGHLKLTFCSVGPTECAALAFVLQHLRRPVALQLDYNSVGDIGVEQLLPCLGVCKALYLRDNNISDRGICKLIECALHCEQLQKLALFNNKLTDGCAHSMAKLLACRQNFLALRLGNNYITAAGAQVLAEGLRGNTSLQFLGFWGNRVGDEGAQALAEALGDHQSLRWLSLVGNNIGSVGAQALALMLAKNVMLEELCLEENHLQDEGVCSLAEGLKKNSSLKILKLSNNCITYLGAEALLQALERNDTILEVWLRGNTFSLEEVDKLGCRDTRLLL
T6 sequence (P11940 whole entry): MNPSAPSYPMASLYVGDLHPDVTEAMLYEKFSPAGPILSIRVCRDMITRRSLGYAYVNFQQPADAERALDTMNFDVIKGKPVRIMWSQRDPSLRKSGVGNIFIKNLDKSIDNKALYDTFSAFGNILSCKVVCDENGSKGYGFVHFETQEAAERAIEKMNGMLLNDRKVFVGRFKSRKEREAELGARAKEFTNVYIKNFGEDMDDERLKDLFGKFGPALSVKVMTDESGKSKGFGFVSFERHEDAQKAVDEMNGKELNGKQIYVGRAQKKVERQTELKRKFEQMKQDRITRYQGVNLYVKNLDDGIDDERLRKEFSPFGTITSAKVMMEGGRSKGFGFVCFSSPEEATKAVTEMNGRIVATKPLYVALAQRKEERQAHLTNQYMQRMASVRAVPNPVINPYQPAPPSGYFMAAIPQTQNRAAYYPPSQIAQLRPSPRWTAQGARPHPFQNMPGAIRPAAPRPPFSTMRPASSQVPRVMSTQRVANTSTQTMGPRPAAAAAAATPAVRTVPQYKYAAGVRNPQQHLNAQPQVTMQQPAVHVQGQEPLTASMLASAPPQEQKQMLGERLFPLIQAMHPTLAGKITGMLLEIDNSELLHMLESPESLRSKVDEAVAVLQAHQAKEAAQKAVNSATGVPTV
Sequence of Nonstructural protein 1 (Q194T2 whole entry): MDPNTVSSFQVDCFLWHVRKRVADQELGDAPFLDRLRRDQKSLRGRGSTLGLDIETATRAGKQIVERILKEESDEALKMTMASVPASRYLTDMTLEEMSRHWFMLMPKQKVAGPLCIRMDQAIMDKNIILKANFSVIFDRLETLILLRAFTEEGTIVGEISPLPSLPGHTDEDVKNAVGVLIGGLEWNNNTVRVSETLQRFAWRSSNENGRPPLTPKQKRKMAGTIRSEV
Sequence of FAD-linked sulfhydryl oxidase ALR (P55789 whole entry): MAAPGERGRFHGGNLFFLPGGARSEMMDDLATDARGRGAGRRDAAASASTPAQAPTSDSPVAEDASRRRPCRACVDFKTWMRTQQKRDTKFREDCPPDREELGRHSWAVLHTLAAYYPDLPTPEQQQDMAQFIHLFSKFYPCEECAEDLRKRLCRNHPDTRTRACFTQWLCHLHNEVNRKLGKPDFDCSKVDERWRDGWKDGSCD

O=C(Nc1sc2c(c1C(=O)O)CCCC2)c1ccccc1Cl
EC50 [1]: > 20 µM (inactive) | IC50 (Tumor necrosis factor): > 20 µM (inactive) and 12.9 µM (active) | EC50 (HEK293 [2]): 14.5 µM (active) | IC50 (HEK293 [3]): > 20 µM (inactive) | IC50 (HEK293 [4]): > 20 µM (inactive) | IC50 (HEK293 [5]): 18.5 µM (inactive) | IC50 (HEK293 [6]): > 20 µM (inactive) | IC50 (HEK293 [7]): > 20 µM (inactive) | IC50 [8]: 5.12 µM (active) and 4.45 µM (active)

O=C(CSc1nnc(COc2ccccc2Cl)o1)NC(=O)NCc1ccco1
IC50 [9]: 5.93 µM (active) | IC50 [10]: 6.9 µM (active)

O=S(=O)(Nc1cccnc1)c1ccccc1
IC50 [11]: > 100 µM (not active) | IC50 [12]: > 100 µM (inactive)

CCc1nnc(NC(=O)c2ccc(Cl)c(S(=O)(=O)N3CCc4ccccc4C3)c2)s1
EC50 [1]: 5.23 µM (active) | EC50 (HEK293 [2]): 2.1 µM (active) | IC50 (HEK293 [3]): 17 µM (active) | IC50 (HEK293 [5]): 4.3 µM (active) | IC50 (HEK293 [6]): 5.23 µM (active) | IC50 (HEK293 [7]): 15.5 µM (active)

COc1ccc(OC)c(NC(=O)c2cnc3ccccc3c2)c1
IC50 [11]: > 10 µM (inconclusive) | IC50 [12]: > 10 µM (inactive)

N#Cc1ccc(-c2ccc(OCC(=O)Nc3cccnc3)cc2)cc1
CC50 [13]: 10.8 µM (active) | IC50 (cells): 1.63 µM (active)

COc1ccc(OC)c(NC(=O)c2cccnc2)c1
IC50 [11]: > 100 µM (not active) | IC50 [12]: > 100 µM (inactive)

O=C(Nc1ccccc1)c1n[nH]c2c1COc1ccccc1-2
IC50 [11]: > 100 µM (not active) | IC50 [12]: > 100 µM (inactive)

CC1Oc2cc3c(-c4c(O)cc(O)c5c(O)c6c(cc45)OC(C)C(C)C6=O)c(O)cc(O)c3c(O)c2C(=O)C1C (configuration not stated)
EC50 (Streptococcus): 0.967 µM (active) | IC50 (Nonstructural protein 1): 29.4 µM (active) | EC50 [14]: 0.324 µM (active) | EC50 (Streptokinase A): 1.74 µM (active) | IC50 [10]: 2.15 µM (active)

CCOc1ccc(NC(=O)c2ccc(CN3CCc4ccccc43)cc2)cc1
IC50 (Tumor necrosis factor): > 20 µM (inactive) | IC50 (HEK293 [4]): > 20 µM (inactive) | IC50 [8]: > 20 µM (inactive)

Oc1ccc(/C=N/n2cc(-c3ccccc3)nc2S)cc1
IC50 [15]: 101 µM (active) | IC50 [16]: > 66 µM (inactive) | IC50 [17]: > 66 µM (inactive) | AC50 [18]: 0.86 µM (active) | IC50 [10]: 16.5 µM (active)

O=C(N/N=C/c1ccc([N+](=O)[O-])s1)c1ccccc1
CC50 [13]: 33.3 µM (active) | AC50 [19]: 2.29 µM (active) | IC50 (cells): 10.3 µM (active)

CCN(CC)c1ccc(/C=N/N2CCN(Cc3ccccc3)CC2)cc1
IC50 [15]: 78.7 µM (active) | IC50 [10]: 11.5 µM (not active)

Cc1nccn1-c1cccnc1
IC50 [11]: > 100 µM (not active) | IC50 [12]: > 100 µM (inactive)
